Experimental data reported in patent US8795679B2, “Pharmaceutical and cosmetic use of extracts from algae obtainable from saline hot water sources” (Blaa Lonid Hf, priority 2006, dated 2014).

Tested on: differentiation markers involucrin, transglutaminase-1, filaggrin, and loricrin in human epidermal keratinocytes
Assay: Induction of differentiation markers in human epidermal keratinocytes (real time RT-PCR)
Assay type: cell-based
Conditions: especially at the early time point, 24 h post addition of the tested substance
Method: The effect of the extracts obtained in Examples 1 and 2 on the differentiation markers involucrin, transglutaminase-1, filaggrin, and loricrin in human epidermal keratinocytes has been assessed. As control a ceramide mix (10 μM) was used to induce the differentiation markers.
Long term cultured normal human epidermal keratinocytes, NHEK, prepared from neonatal foreskin are cultured in Keratinocyte SFM (Invitrogen, Heidelberg, Germany) supplemented with bovine pituitary extract (Invitrogen, Heidelberg, Germany) and recombinant epidermal growth factor (Invitrogen, Heidelberg, Germany). Cells are propagated up to passage 2 or 3 at 37° C. and 5% CO2. For induction of differentiation NHEKs are seeded in 6-well plates and grown up to confluence and treated with several concentrations of the algae extracts.
Total RNA was isolated using RNeasy Total RNA Kits (Qiagen, Hilden, Germany). The RNA concentration was determined via photometric measurement at 260/280 (Biophotometer, Eppendorf A G, Hamburg, Germany). An aliquot of 100 ng RNA was used for cDNA synthesis. […]
PCR reactions were carried out on an Opticon 1 (MJ Research, Waltham, Mass., USA) using SYBR Green® PCR Master Mix (Applied Biosystems, Darmstadt, Germany). Each sample was analyzed in double employing the universal protocol over 36 cycles. […]

- expression of the differentiation markers involucrin, filaggrin and transglutaminase-1 (silica samples): substantial up-regulation
SMILES: O=[Si]([O-])[O-].[Na+].[Na+] [sodium metasilicate]
